One may read the MIC80 as an inhibitory concentration at the 80% level, which refers to growth in some studies and to a panel of isolates in others. The IC50 is the concentration at which inhibition is half-maximal. One may read the MIC99 as an inhibitory concentration at the 99% level, which refers to growth in some studies and to a panel of isolates in others.

The subject of assay [1] is Staphylococcus aureus (ATCC 43300). Put plainly: Antibacterial MIC, broth microdilution (CLSI). In kind it is cell-based. Conditions: for MIC80: Staphylococcus aureus, ATCC43300, read-out: MIC80 S. aureus. For orientation: In broth dilution the organism is exposed to a series of concentrations in liquid medium.
The test system of assay [2] is Enterococcus faecalis (ATCC 51299). Kind of assay: Antibacterial MIC, broth microdilution (CLSI). In kind it is cell-based. Conditions: for MIC80: Enterococcus faecalis, ATCC51299, read-out: MIC80 E. faecalis.
Assay [3] deals with Escherichia coli (ATCC 25922). Kind of assay: Antibacterial MIC, broth microdilution (CLSI). In kind it is cell-based. The note with it: Escherichia coli, ATCC25922; read-out: MIC80 E. coli.
The test system of assay [4] is T. vaginalis. Put plainly: Trichomonas resorufin assay. In kind it is cell-based. Conditions: Trichomonas vaginalis, read-out: IC50 T. vaginalis.
For assay [5], the system named is Genomic double stranded DNA (salmon). Kind of assay: Fluorescence intercalator displacement (FID) assay, SYBR-safe probe. The note with it: 20 μM compound, 30° C., lower % = stronger binding. The essentials:
(§1)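 Compound at 20 μM mixed with 3.76 ng/mL polyAU dsRNA or salmon genomic dsDNA and 12500-fold diluted SybrSafe in 1 mM phosphate buffer pH 7.4, then heated to 30 °C and fluorescence read. Reduction is expressed as normalised %, with nucleic acid plus probe as maximum and probe alone as minimum.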

Assay [6] has as its system PolyAU double stranded RNA. The assay is described as above. Conditions: 20 μM compound, 30° C., lower % = stronger binding. The essentials:
as §1

The test system of assay [7] is C. neoformans (F10025). The note with it: Cryptococcus neoformans, read-out: MIC99 C. neoformans.
Assay [8] concerns A. fumigatus A1160 (MFIG001). Conditions: Aspergillus fumigatus, read-out: MIC99 A. fumigatus A1160.
Assay [9] deals with Candida glabrata (ACPF3309). The note with it: Nakaseomyces glabratus, read-out: MIC99 Candida glabrata.
Method: The Minimum Inhibitory Concentration (MIC, at 99% inhibition) of the compounds was determined using the broth microdilution method as recommended by EUCAST (EUCAST Definitive Document E.DEF 9.3.2, Method for the determination of broth dilution minimum inhibitory concentrations of antifungal agents for conidia forming moulds and EUCAST Definitive Document E.DEF 7.3.2 Method for the determination of broth dilution minimum inhibitory concentrations of antifungal agents for yeasts).
[10] abbreviates: SI, IC50 (μM)/MIC80 (μM), HEK293 cytotoxicity, Alkyl Amidines and NH Pyrroles.

Converted amounts (≈) assume the structure as drawn.

On to `CCCCCCC/N=C(/CCNC(=O)c1cc(NC(=O)c2cc(NC(=O)c3ccc(/C=C/c4cnc5ccccc5c4)cc3)cn2C)cn1C)NCCCCCCC` [Ia37, N—((Z)-3-(heptylamino)-3-(heptylimino)propyl)-1-methyl-4-(1-methyl-4-(4-((E)-2-(quinolin-3-yl)vinyl)benzamido)-1H-pyrrole-2-carboxamido)-1H-pyrrole-2-carboxamide], for which the figures for the MIC80 in assay [1], in assay [2] and in [3] were 5 to 25 µM (≈ 3.93 to 19.6 µg/mL), 25 to 100 µM (≈ 19.6 to 78.5 µg/mL) and more than 100 µM, respectively. Besides, in assay [4], the IC50 lay in the range of 5 to 50 µM. For the same molecule, the “% Normalised Fluorescence with gDNA” value in assay [5] turned out to be 16%. For the same molecule, the “% Normalised Fluorescence with polyAU RNA” value in assay [6] stood at 68%. The MIC99 in assay [7] was 25 to 50 µg/mL (≈ 31.8 to 63.7 µM); in [8], more than 50 µg/mL; in [9], more than 50 µg/mL.
Regarding `CCCC/N=C(\CCNC(=O)c1cc(NC(=O)c2cc(NC(=O)c3ccc(/C=C/c4cnc5ccccc5c4)cc3)cn2C)cn1C)NCCCC` [Ia38, N—((E)-3-(butylamino)-3-(butylimino)propyl)-1-methyl-4-(1-methyl-4-(4-((E)-2-(quinolin-3-yl)vinyl)benzamido)-1H-pyrrole-2-carboxamido)-1H-pyrrole-2-carboxamide], the MIC80 in assay [1] was less than 5 µM; in assay [2] it was 25 to 100 µM (≈ 17.5 to 70.1 µg/mL); in assay [3] it was more than 100 µM. Besides, the IC50 in assay [4] lay within 5 to 50 µM. In addition, the “% Normalised Fluorescence with gDNA” value in [5] is on record as 10%. Moreover, the “% Normalised Fluorescence with polyAU RNA” value in assay [6] came out at 4%. Further, the MIC99 in [7] was 25 to 50 µg/mL (≈ 35.7 to 71.3 µM); in [8], more than 50 µg/mL; in assay [9], 5 to 25 µg/mL (≈ 7.13 to 35.7 µM).
Turning to `CN1CCN(C(=N)CCNC(=O)c2cc(NC(=O)c3cc(NC(=O)c4ccc(/C=C/c5cnc6ccccc6c5)cc4)cn3C)cn2C)CC1` [Ib3, (E)-N-(3-imino-3-(4-methylpiperazin-1-yl)propyl)-1-methyl-4-(1-methyl-4-(4-(2-(quinolin-3-yl)vinyl)benzamido)-1H-pyrrole-2-carboxamido)-1H-pyrrole-2-carboxamide], in assay [1] (setting [10]), the “S. aureus Selectivity Indices, Group” value was “B (Group B: 3 < SI <= 5)”. The figures for the MIC80 in [1], in assay [2] and in assay [3] were less than 5 µM, 5 to 25 µM (≈ 3.36 to 16.8 µg/mL) and more than 100 µM, respectively. In addition, the half-maximal inhibitory concentration (IC50) in [4] was 5 to 50 µM. For the same molecule, the “% Normalised Fluorescence with gDNA” value in assay [5] was determined as 13%. Moreover, the “% Normalised Fluorescence with polyAU RNA” value in assay [6] is 5%. In addition, the MIC99 in assay [7] was 5 to 25 µg/mL (≈ 7.44 to 37.2 µM); in assay [8], more than 50 µg/mL; in assay [9], 5 to 25 µg/mL (≈ 7.44 to 37.2 µM).
With `CCCCCCCCCNC(=N)CCNC(=O)c1cc(NC(=O)c2cc(NC(=O)c3ccc(/C=C/c4cnc5ccccc5c4)cc3)cn2C)cn1C` [Ia36, (E)-N-(3-imino-3-(nonylamino)propyl)-1-methyl-4-(1-methyl-4-(4-(2-(quinolin-3-yl)vinyl)benzamido)-1H-pyrrole-2-carboxamido)-1H-pyrrole-2-carboxamide], the MIC80 is 5 to 25 µM (≈ 3.57 to 17.9 µg/mL) in assay [1], 25 to 100 µM (≈ 17.9 to 71.5 µg/mL) in [2] and more than 100 µM in assay [3]. Also, the IC50 in [4] lay in the range of 5 to 50 µM. Further, the “% Normalised Fluorescence with gDNA” value in assay [5] came out at 11%. Also, the “% Normalised Fluorescence with polyAU RNA” value in [6] is given as 4%. Further, the MIC99 is more than 50 µg/mL in assay [7], more than 50 µg/mL in assay [8] and 25 to 50 µg/mL (≈ 35 to 69.9 µM) in [9].
As to `CCNC(=N)CCNC(=O)c1cc(NC(=O)c2cc(NC(=O)c3ccc(/C=C/c4cccc(OC)c4)cc3)cn2C)cn1C` [Ia22, (E)-N-(3-(ethylamino)-3-iminopropyl)-4-(4-(4-(3-methoxystyryl)benzamido)-1-methyl-1H-pyrrole-2-carboxamido)-1-methyl-1H-pyrrole-2-carboxamide], the MIC80 in assay [1] is 5 to 25 µM (≈ 2.98 to 14.9 µg/mL); in assay [2] it was less than 5 µM; in assay [3] it was more than 100 µM. Moreover, the “E. faecalis Selectivity Indices, Group” value in [2] (setting [10]) is reported as “C (Group C: 5 < SI <= 10)”. For the same molecule, in assay [4], the IC50 is 1 to 5 µM. In addition, the “% Normalised Fluorescence with gDNA” value in [5] amounted to 3%. The “% Normalised Fluorescence with polyAU RNA” value in [6] stood at 5%. Also, the MIC99 in assay [7] is 25 to 50 µg/mL (≈ 42 to 83.9 µM); in assay [8], more than 50 µg/mL; in assay [9] it was 5 to 25 µg/mL (≈ 8.39 to 42 µM).
As to `Cn1cc(NC(=O)c2cc(NC(=O)c3ccc(/C=C/c4cnc5ccccc5c4)cc3)cn2C)cc1C(=O)NCCC(=N)NCCC1CCOCC1` [Ia44, (E)-N-(3-imino-3-((2-(tetrahydro-2H-pyran-4-yl)ethyl)amino)propyl)-1-methyl-4-(1-methyl-4-(4-(2-(quinolin-3-yl)vinyl)benzamido)-1H-pyrrole-2-carboxamido)-1H-pyrrole-2-carboxamide], the MIC80 in assay [1] was 5 to 25 µM (≈ 3.5 to 17.5 µg/mL); in assay [2], 5 to 25 µM (≈ 3.5 to 17.5 µg/mL); in assay [3], more than 100 µM. For the same molecule, in [4], the IC50 was 5 to 50 µM. For the same molecule, the “% Normalised Fluorescence with gDNA” value in assay [5] is reported as 16%. Besides, the “% Normalised Fluorescence with polyAU RNA” value in [6] is listed as 19%. For the same molecule, the MIC99 in [7] is 25 to 50 µg/mL (≈ 35.7 to 71.3 µM); in assay [8] it was more than 50 µg/mL; in [9], 5 to 25 µg/mL (≈ 7.13 to 35.7 µM).
For `CN(C)CCCN(CCCN(C)C)C(=O)c1cc(NC(=O)c2cc(NC(=O)c3ccc(/C=C/c4cnc5ccccc5c4)cc3)cn2C)cn1C` [IVa9, (E)-N,N-bis(3-(dimethylamino)propyl)-1-methyl-4-(1-methyl-4-(4-(2-(quinolin-3-yl)vinyl)benzamido)-1H-pyrrole-2-carboxamido)-1H-pyrrole-2-carboxamide], the MIC80 in assay [1] was 25 to 100 µM (≈ 17.2 to 68.9 µg/mL); in [2], more than 100 µM; in assay [3] it was more than 100 µM. In assay [5], the “% Normalised Fluorescence with gDNA” value is on record as 3%. Moreover, the “% Normalised Fluorescence with polyAU RNA” value in [6] amounted to 4%. Moreover, the MIC99 in [7] is 25 to 50 µg/mL (≈ 36.3 to 72.6 µM); in [8], more than 50 µg/mL; in assay [9], 25 to 50 µg/mL (≈ 36.3 to 72.6 µM).
Take `CCCCCCCCCCC[N+](C)(C)CCNC(=O)c1cc(NC(=O)c2cc(NC(=O)c3ccc(/C=C/c4cnc5ccccc5c4)cc3)cn2C)cn1C` [Ic10, (E)-N,N-dimethyl-N-(2-(1-methyl-4-(1-methyl-4-(4-(2-(quinolin-3-yl)vinyl)benzamido)-1H-pyrrole-2-carboxamido)-1H-pyrrole-2-carboxamido)ethyl)undecan-1-aminium]: the MIC80 is 5 to 25 µM in assay [1], more than 100 µM in [2] and more than 100 µM in assay [3]. Moreover, in [4], the IC50 fell in the range of 5 to 50 µM. Moreover, the MIC99 in assay [7] was more than 50 µg/mL; in [8], more than 50 µg/mL; in assay [9], 25 to 50 µg/mL.
For `CCCCCCC/N=C(\CCNC(=O)c1cc(NC(=O)c2cc(NC(=O)c3ccc(/C=C/c4ccc(N(C)C)cc4)nc3)cn2C)cn1C)NCCCCCCC` [Ia33, 6-((E)-4-(dimethylamino)styryl)-N-(5-((5-(((E)-3-(heptylamino)-3-(heptylimino)propyl)carbamoyl)-1-methyl-1H-pyrrol-3-yl)carbamoyl)-1-methyl-1H-pyrrol-3-yl)nicotinamide], the MIC80 is 5 to 25 µM (≈ 3.89 to 19.5 µg/mL) in assay [1], 25 to 100 µM (≈ 19.5 to 77.8 µg/mL) in [2] and more than 100 µM in assay [3]. Further, the IC50 in assay [4] lay within 5 to 50 µM. Besides, in assay [5], the “% Normalised Fluorescence with gDNA” value is 49%. Also, the “% Normalised Fluorescence with polyAU RNA” value in assay [6] was 24%. In addition, the MIC99 is 25 to 50 µg/mL (≈ 32.1 to 64.3 µM) in [7], more than 50 µg/mL in assay [8] and more than 50 µg/mL in [9].
As for `CCCCCCCCC[N+](C)(C)CCNC(=O)c1cc(NC(=O)c2cc(NC(=O)c3ccc(/C=C/c4cnc5ccccc5c4)cc3)cn2C)cn1C` [Ic8, (E)-N,N-dimethyl-N-(2-(1-methyl-4-(1-methyl-4-(4-(2-(quinolin-3-yl)vinyl)benzamido)-1H-pyrrole-2-carboxamido)-1H-pyrrole-2-carboxamido)ethyl)nonan-1-aminium], the “S. aureus Selectivity Indices, Group” value in [1] (SI, IC50 (μM)/MIC80 (μM), HEK293 cytotoxicity, Quaternary ammoniums) is on record as “C (Group C: 5 < SI <= 10)”. In assay [1] (SI, IC50 (μM)/MIC80 (μM), HEK293 cytotoxicity, numeric value), the “S. aureus Selectivity Index (SI)” value was 6. Also, the MIC80 in [1] is less than 5 µM; in [2], more than 100 µM; in assay [3], more than 100 µM. For the same molecule, the IC50 in assay [4] fell in the range of 5 to 50 µM. Besides, the MIC99 in assay [7] was 25 to 50 µg/mL; in [8], more than 50 µg/mL; in [9] it was 5 to 25 µg/mL.
As for `CC[N+](C)(C)CCNC(=O)c1cc(NC(=O)c2cc(NC(=O)c3ccc(/C=C/c4cnc5ccccc5c4)cc3)cn2C)cn1C` [Ic1, (E)-N-ethyl-N,N-dimethyl-2-(1-methyl-4-(1-methyl-4-(4-(2-(quinolin-3-yl)vinyl)benzamido)-1H-pyrrole-2-carboxamido)-1H-pyrrole-2-carboxamido)ethan-1-aminium], the MIC80 in [1] is less than 5 µM; in [2], less than 5 µM; in assay [3], more than 100 µM. Also, the IC50 in assay [4] is less than 1 µM. The MIC99 in assay [7] was 5 to 25 µg/mL; in assay [8], more than 50 µg/mL; in assay [9], 5 to 25 µg/mL.

Source of the values: US20250313546A1, “NUCLEIC ACID BINDERS” (UNIVERSITY OF STRATHCLYDE, priority 2022, published 2025).
